This note sets out measurements from PMC4481955, “Sensitive, Fast, and Specific Immunoassays for Methyltestosterone Detection” (Sensors (Basel, Switzerland), 2015).

The subject of assay [1] is anti-MT mAb. Briefly: indirect competitive ELISA (icELISA) with anti-MT monoclonal antibody. To be noted: for CR (%): CR = (IC50 of MT/IC50 of competition analogue) x 100%. The format is binding, mouse. The procedure: (§1) Checkerboard titration was used for the determination of optimum coating antigen and antibody concentrations in icELISA. A 96-well microplate was coated with 100 μL/well MT-CMO-OVA (0.1 μg/mL, in 0.05 M CBS, pH 9.6) and incubated overnight at 4 °C. The wells were washed three times with washing buffer (0.01 M, PBS, containing 0.2% Tween 20) to remove free coating antigen and blocked with 220 μL blocking buffer (0.05 M, 0.2% Gelatin in CBS) at 37 °C for 2 h.
After washing, 50 μL of different concentrations of standard and 50 μL of antibody were added to wells and incubated at 37 °C for 30 min. Following another wash to remove unbound antibody and standards, 100 μL of 1:3000 diluted HRP-labelled goat anti-mouse IgG was added to each well and incubated for 30 min at 37 °C. After washing three times, 100 μL of substrate was added and incubated for 15 min at 37 °C. The enzymatic reaction was stopped with 50 μL sulfuric acid (2 M) per well. A microplate reader was used to determine the absorbance of each well at 450 nm.
Three immunoassay parameters (methanol content, ionic strength and pH of the solvent) were optimized to improve both the stability and sensitivity of icELISA. The criteria used to evaluate immunoassay performance were half inhibition concentration (IC50), maximum absorbance (Amax) and Amax/IC50. To optimize the methanol content in the solvent, PBS was mixed with different contents of methanol (0%, 5%, 10% and 20%). For ionic strength optimization, different concentrations of PBS (5, 10, 20, and 40 mM) were used. Finally, for solvent pH optimization, PBS was adjusted to different pH values (4.7–9.6).
In this study, mAb specificity was investigated by cross-reactivity (CR). Competition analogues (testosterone, nor-testosterone, estradiol, estriol, progesterone, epitestosterone, dihydrotestosterone and dexamethasone) were prepared in methanol at 1 mg/mL. A series of standard solutions (0, 1, 2, 5, 10, 20, 50 and 100 ng/mL) were diluted with optimized PBS and subjected to icELISA. CR values were calculated with the following formula: CR (%) = (IC50 of MT/IC50 of competition analogue) × 100%
A general note: In an ELISA, binding on a coated surface is turned into a signal by an enzyme label.

Assay [2] deals with antisera (mouse No. 16), anti-MT activity. Briefly: icELISA screening of mouse antiserum for anti-MT activity. The format is binding. To be noted: mouse No. 16, after two subsequent injections, MT in PBS. The protocol:
Female BALB/c mice (8–10 weeks old) were injected subcutaneously at multiple sites with the immunogen MT-CMO-BSA (100 μg in 0.1 mL saline) emulsified with an equal volume of Freund’s complete adjuvant. For subsequent boosters administered at one-month intervals, Freund’s incomplete adjuvant was used. Antisera were collected following the third booster immunization and screened for anti-MT activity by icELISA [27]. The mouse with the highest anti-MT activity was administered the immunogen (20 μg in 0.2 mL saline) by intraperitoneal injection and sacrificed three days later for cell fusion.
as §1
After washing, 50 μL of different concentrations of standard and 50 μL of antibody were added to wells and incubated at 37 °C for 30 min. […] A microplate reader was used to determine the absorbance of each well at 450 nm.

The mark [3] stands for this setting: optimized icELISA, PBS 10 mM, pH 7.4.

Turning to `C[C@@H]1C[C@H]2[C@@H]3CCC4=CC(=O)C=C[C@]4(C)[C@@]3(F)[C@@H](O)C[C@]2(C)[C@@]1(O)C(=O)CO` [Dexamethasone], the “CR (%)” value in assay [1] is under 0.26%. Besides, in assay [1] (setting [3]), the IC50 was over 100 ng/mL.
On to `C[C@]12CCC(=O)C[C@@H]1CC[C@@H]1[C@@H]2CC[C@]2(C)[C@@H](O)CC[C@@H]12` [Dihydrotestosterone], for which the “CR (%)” value in assay [1] is under 0.26%. Further, in assay [1] (setting [3]), the IC50 was over 100 ng/mL.
Regarding `C[C@]12CC[C@H]3[C@@H](CCC4=CC(=O)CC[C@@]43C)[C@@H]1CC[C@H]2O` [Epitestosterone], the “CR (%)” value in assay [1] is reported as under 0.26%. Moreover, the 50% inhibitory concentration (IC50) in assay [1] (setting [3]) is reported as over 100 ng/mL.
Consider `C[C@]12CC[C@@H]3c4ccc(O)cc4CC[C@H]3[C@@H]1CC[C@@H]2O` [Estradiol], for which the “CR (%)” value in assay [1] was 0.52%. For the same molecule, the IC50 in assay [1] (setting [3]) is reported as 50 ng/mL.
For `C[C@]12CC[C@@H]3c4ccc(O)cc4CC[C@H]3[C@@H]1C[C@@H](O)[C@@H]2O` [Estriol], the “CR (%)” value in assay [1] is given as under 0.26%. In addition, the IC50 in assay [1] (setting [3]) is over 100 ng/mL.
In the case of `C[C@]12CCC(=O)C=C1CC[C@@H]1[C@@H]2CC[C@@]2(C)[C@H]1CC[C@]2(C)O` [Methyltestosterone], the “CR (%)” value in assay [1] came out at 100%. Further, the IC50 in assay [1] (ionic strength (PBS) 5 mM) is recorded as 0.68 ± 0.017 ng/mL; in assay [1] (ionic strength (PBS) 10 mM), 0.398 ± 0.024 ng/mL; in assay [1] (ionic strength (PBS) 20 mM), 0.565 ± 0.024 ng/mL; in assay [1] (ionic strength (PBS) 40 mM), 0.504 ± 0.092 ng/mL; in assay [1] (methanol content 0%), 0.418 ± 0.02 ng/mL; in assay [1] (methanol content 5%) it was 0.567 ± 0.023 ng/mL. Moreover, the IC50 in assay [1] (methanol content 10%) came to 0.418 ± 0.05 ng/mL; in assay [1] (methanol content 20%), 0.626 ± 0.009 ng/mL; in assay [1] (setting [3]) it was 0.26 ng/mL; in assay [1] (pH 4.7) it was 0.456 ng/mL; in assay [1] (pH 6.0) it was 0.723 ± 0.038 ng/mL; in assay [1] (pH 7.4) it was 0.455 ng/mL. Further, the IC50 turned out to be 0.577 ± 0.026 ng/mL in assay [1] (pH 8.6) and 0.714 ± 0.007 ng/mL in assay [1] (pH 9.6). In addition, in assay [1] (purified mAb from hybridoma 1E12, before optimization), the “IC50 of purified mAb” value is 0.4 ng/mL. The IC50 of antiserum entry in assay [2] is “approximately 3 ng/mL”.
For `C[C@]12CC[C@H]3[C@@H](CCC4=CC(=O)CC[C@@H]43)[C@@H]1CC[C@@H]2O` [Nor-testosterone], in assay [1], the “CR (%)” value is 1.04%. In addition, in assay [1] (setting [3]), the IC50 came out at 25 ng/mL.
As for `CC(=O)[C@H]1CC[C@H]2[C@@H]3CCC4=CC(=O)CC[C@]4(C)[C@H]3CC[C@]12C` [Progesterone], the “CR (%)” value in assay [1] was under 0.26%. In assay [1] (setting [3]), the IC50 is listed as over 100 ng/mL.
Consider `C[C@]12CC[C@H]3[C@@H](CCC4=CC(=O)CC[C@@]43C)[C@@H]1CC[C@@H]2O` [Testosterone], for which the IC50 in assay [1] (setting [3]) amounted to 12 ng/mL.

As a reminder, the IC50 is the midpoint of a concentration-inhibition curve.
